Measurements reported in PMC7397056, “Design, Facile Synthesis and Characterization of Dichloro Substituted Chalcones and Dihydropyrazole Derivatives for Their Antifungal, Antitubercular and Antiproliferative Activities” (Molecules, 2020).
Converted amounts (≈) assume the structure as drawn. Like-named read-outs stand apart in the source and are kept apart here.

Experiments:
[1] = test system: prostate cancer cell lines (DU-145); experiment: Antiproliferative activity, MTT assay; format: cell-based; settings: Homo sapiens, 48 h, mean ± SD (n = 3)
Procedure: (§1) The antiproliferative activity of the compounds was determined their IC50 values. Methotrexate (Mtx; positive control) was used as a reference standard for comparing the antiproliferative activity of the target compounds. The MTT (3-(4,5-dimethylthiazol-2-yl)-2,5-diphenyl tetrazolium bromide) assay was based on the reduction of the soluble MTT (0.5 mg mL^−1, 100 µL) into a blue-purple formazan product, mainly by the activity of mitochondrial reductase enzymes inside the living cells. The prostate cancer cell lines, DU-145 cells, were cultured in Dulbecco’s Modified Eagle Medium (DMEM) media at 37 °C and humidified at 5% CO2. Stock solutions of the test compounds (17–46) were prepared in 0.1% DMSO followed by dilution with sterile water to obtain the desired final concentrations. Briefly, the cells were placed on 96-well plates at 100 µL total volume with the density of 1 × 10^4 cells per well and were allowed to adhere for 24 h. Then the medium was replaced with fresh media containing different dilutions of the test compounds and incubated for additional 48 h at 37 °C in DMEM with 10% fetal bovine serum (FBS) medium. Subsequently, the medium was replaced with 90 μL of fresh DMEM without FBS. The above wells were treated with 10 μL of MTT reagent (5 mg/mL of stock solution in DMEM without FBS) and incubated at 37 °C for 3–4 h. The formed blue formazan crystals were dissolved in 200 μL of DMSO. The optical density was determined at 570 nm using a micro plate reader. The assay was performed in triplicate for three independent experiments. The same experimentation was also done to confirm that the DMSO (negative control) had no effect in the study. The results had good reproducibility between replicate wells with standard errors below 10%. The antiproliferative activity results measured as IC50 values in µg/mL were converted and expressed in µM. Additionally, the cytotoxic activity of the compounds was also measured employing the same protocol discussed above to assess their toxicity on normal human cell lines (L02).

[2] = test system: Mycobacterium tuberculosis H37Rv; experiment: Antitubercular activity, broth dilution assay (MIC); format: cell-based; settings: for MIC: Middlebrook 7H9 broth, 37 °C, 21 days; for fold less activity than pyrazinamide / fold better activity than the standard pyrazinamide: ratio of MICs vs pyrazinamide (MIC 25.34 µM)
[3] = Cytotoxic activity on normal cells, MTT assay; format: cell-based
Procedure: as §1

[4] = test system: Aspergillus niger (ATCC-6275); experiment: Antifungal activity, serial tube dilution method (MIC); settings: for MIC: Aspergillus niger; for Antifungal activity MIC, A. niger: serial tube dilution, 37 °C, 18 h, average of three
[5] = test system: Candida tropicalis (ATCC-1369); experiment: as above; settings: for MIC: Candida tropicalis, ATCC1369, 18 h, read-out: Antifungal activity MIC, C. tropicalis, serial tube dilution, 37 °C, 18 h, average of three
[6] = Mycobacterium tuberculosis, H37RV, 504 h
[7] = L02 cells (normal human cell line)
[8] = ATCC6275, 18 h, read-out: Antifungal activity MIC, A. niger, serial tube dilution, 37 °C, 18 h, average of three
[9] = ATCC6275, read-out: Antifungal MIC, Aspergillus niger

O=C(/C=C/c1cccnc1)c1ccc(Cl)c(Cl)c1 [Compound 12, (E)-1-(3,4-dichlorophenyl)-3-(pyridin-3-yl)prop-2-en-1-one]
IC50 [1]: 256 ± 2 µM | MIC [2, 6]: 22.6 µM (≈ 6.27 µg/mL) | IC50 at 48 h [3, 7]: > 50 µg/mL | MIC [4, 8]: 28.9 µM | MIC [5]: 14.4 µM (≈ 4.01 µg/mL) | melting point: 191 °C

O=C(/C=C/c1ccco1)c1ccc(Cl)c(Cl)c1 [Compound 14, (E)-1-(3,4-dichlorophenyl)-3-(furan-2-yl)prop-2-en-1-one]
IC50 [1]: 206 ± 2 µM | MIC [2, 6]: 47 µM (≈ 12.6 µg/mL) | IC50 at 48 h [3, 7]: > 50 µg/mL | MIC [4, 8]: 235 µM | MIC [5]: 117 µM (≈ 31.4 µg/mL) | melting point: 172 °C

O=C(/C=C/c1ccc[nH]1)c1ccc(Cl)c(Cl)c1 [Compound 15, (E)-1-(3,4-dichlorophenyl)-3-(1H-pyrrol-2-yl)prop-2-en-1-one]
IC50 [1]: 94 ± 2 µM | MIC [2, 6]: 47.2 µM (≈ 12.6 µg/mL) | IC50 at 48 h [3, 7]: > 50 µg/mL | MIC [4, 8]: 60.4 µM | MIC [5]: 60.4 µM (≈ 16.1 µg/mL) | melting point: 238 °C

O=C(/C=C/c1cccs1)c1ccc(Cl)c(Cl)c1 [Compound 16, (E)-1-(3,4-dichlorophenyl)-3-(thiophen-2-yl)prop-2-en-1-one]
IC50 [1]: 17 ± 1 µM | MIC [2, 6]: 22.1 µM (≈ 6.25 µg/mL) | IC50 at 48 h ([3]; normal human cell line L02): > 50 µg/mL | fold better activity in comparison to fluconazole, Aspergillus niger [4]: 1.84 fold | MIC [4, 8]: 14.1 µM | fold better activity in comparison to fluconazole, Candida tropicalis [5]: 1.35 fold | MIC [5]: 14.1 µM (≈ 4 µg/mL) | melting point: 194 °C

Cc1ccc(C2CC(c3ccc(Cl)c(Cl)c3)=NN2c2ccccc2)cc1 (centres unmarked) [Compound 17, 3-(3,4-dichlorophenyl)-1-phenyl-5-(p-tolyl)-4,5-dihydro-1H-pyrazole]
IC50 [1]: 351 ± 2 µM | MIC [2, 6]: 262 µM (≈ 100 µg/mL) | IC50 at 48 h [3, 7]: > 75 µg/mL | MIC [4, 8]: 42 µM | MIC [5]: 42 µM (≈ 16 µg/mL) | melting point: 168 °C

Fc1ccc(C2CC(c3ccc(Cl)c(Cl)c3)=NN2c2ccccc2)cc1 (centres unmarked) [Compound 18, 3-(3,4-dichlorophenyl)-1-phenyl-5-(4-fluorophenyl)-4,5-dihydro-1H-pyrazole]
IC50 [1]: 119 ± 2 µM | MIC [2]: 32.44 µM (≈ 12.5 µg/mL) | fold less activity than pyrazinamide [2]: 1.2 fold | IC50 at 48 h [3, 7]: > 75 µg/mL | MIC [4, 8]: 28.8 µM | MIC [4, 9]: 20.8 µg/mL | Antifungal activity MIC, A. niger [4]: 20.76 µM | MIC [5]: 41.5 µM (≈ 16 µg/mL) | melting point: 195 °C

Fc1ccccc1C1CC(c2ccc(Cl)c(Cl)c2)=NN1c1ccccc1 (centres unmarked) [Compound 19, 3-(3,4-dichlorophenyl)-1-phenyl-5-(2-fluorophenyl)-4,5-dihydro-1H-pyrazole]
IC50 [1]: 327 ± 2 µM | MIC [2]: 32.44 µM (≈ 12.5 µg/mL) | fold less activity than pyrazinamide [2]: 1.2 fold | IC50 at 48 h [3, 7]: > 75 µg/mL | MIC [4, 8]: 20.8 µM | MIC [4, 9]: 20.8 µg/mL | MIC [5]: 41.5 µM (≈ 16 µg/mL) | melting point: 149 °C

Clc1ccc(C2CC(c3ccc(Cl)c(Cl)c3)=NN2c2ccccc2)cc1 (centres unmarked) [Compound 20, 3-(3,4-dichlorophenyl)-1-phenyl-5-(4-chlorophenyl)-4,5-dihydro-1H-pyrazole]
IC50 [1]: 149 ± 2 µM | MIC [2]: 31.11 µM (≈ 12.5 µg/mL) | fold less activity than pyrazinamide [2]: 1.2 fold | IC50 at 48 h [3, 7]: > 75 µg/mL | MIC [4, 8]: 28.8 µM | Antifungal activity MIC, A. niger [4]: 19.91 µM | MIC [5]: 39.8 µM (≈ 16 µg/mL) | melting point: 261 °C

Clc1ccc(C2=NN(c3ccccc3)C(c3ccccc3Cl)C2)cc1Cl (centres unmarked) [Compound 21, 3-(3,4-dichlorophenyl)-1-phenyl-5-(2-chlorophenyl)-4,5-dihydro-1H-pyrazole]
IC50 [1]: 134 ± 2 µM | MIC [2]: 15.55 µM (≈ 6.25 µg/mL) | MIC [2, 6]: 15.6 to 32.4 µM (≈ 6.25 to 13 µg/mL) | fold better activity than the standard pyrazinamide [2]: 1.6 fold | IC50 at 48 h [3, 7]: > 75 µg/mL | MIC [4, 8]: 19.9 µM | MIC [4, 9]: 19.9 µg/mL | MIC [5]: 39.8 µM (≈ 16 µg/mL) | melting point: 133 °C

Fc1ccc(C2CC(c3ccc(Cl)c(Cl)c3)=NN2c2ccccc2)c(F)c1 (centres unmarked) [Compound 22, 3-(3,4-dichlorophenyl)-1-phenyl-5-(2,4-difluorophenyl)-4,5-dihydro-1H-pyrazole]
IC50 [1]: 262 ± 2 µM | MIC [2, 6]: 3.96 µM (≈ 1.6 µg/mL) | IC50 at 48 h [3, 7]: > 75 µg/mL | MIC [4, 8]: 19.8 µM | MIC [5]: 19.8 µM (≈ 8 µg/mL) | melting point: 291 °C

Clc1ccc(C2CC(c3ccc(Cl)c(Cl)c3)=NN2c2ccccc2)c(Cl)c1 (centres unmarked) [Compound 23, 3-(3,4-dichlorophenyl)-1-phenyl-5-(2,4-dichlorophenyl)-4,5-dihydro-1H-pyrazole]
IC50 [1]: 206 ± 2 µM | MIC [2, 6]: 7.15 µM (≈ 3.12 µg/mL) | fold improvement in antitubercular activity compared to compound 20 ([2]; comparator compound 20): 4 fold | fold improvement in antitubercular activity compared to compound 21 ([2]; comparator compound 21): 2 fold | IC50 at 48 h [3, 7]: > 75 µg/mL | MIC [4, 8]: 18.3 µM | MIC [5]: 36.7 µM (≈ 16 µg/mL) | melting point: 302 °C

FC(F)(F)c1ccc(C2CC(c3ccc(Cl)c(Cl)c3)=NN2c2ccccc2)cc1 (centres unmarked) [Compound 24, 3-(3,4-dichlorophenyl)-1-phenyl-5-(4-trifluoromethylphenyl)-4,5-dihydro-1H-pyrazole]
IC50 [1]: 257 ± 2 µM | MIC [2, 6]: 3.67 µM (≈ 1.6 µg/mL) | fold better activity than the standard pyrazinamide [2]: sevenfold | IC50 at 48 h [3, 7]: > 75 µg/mL | MIC [4, 8]: 9.18 µM | fold improvement in activity over compound 17 (CH3 replaced with CF3), Aspergillus niger ([4]; comparator compound 17): 4.6 fold | MIC [5]: 9.18 µM (≈ 4 µg/mL) | fold improvement in activity over compound 17 (CH3 replaced with CF3), Candida tropicalis ([5]; comparator compound 17): 4.6 fold | melting point: 125 °C

Clc1ccc(C2=NN(c3ccccc3)C(c3ccc4c(c3)OCO4)C2)cc1Cl (centres unmarked) [Compound 25, 3-(3,4-dichlorophenyl)-1-phenyl-5-(benzo[d][1,3]dioxol-5-yl)-4,5-dihydro-1H-pyrazole]
IC50 [1]: 131 ± 2 µM | MIC [2, 6]: 60.8 µM (≈ 25 µg/mL) | IC50 at 48 h [3, 7]: > 75 µg/mL | MIC [4, 8]: 19.4 µM | MIC [5]: 19.4 µM (≈ 8 µg/mL) | melting point: 212 °C

Clc1ccc(C2=NN(c3ccccc3)C(c3ccccn3)C2)cc1Cl (centres unmarked) [Compound 26, 3-(3,4-dichlorophenyl)-1-phenyl-5-(pyridin-2-yl)-4,5-dihydro-1H-pyrazole]
IC50 [1]: 271 ± 2 µM | MIC [2, 6]: 67.9 µM (≈ 25 µg/mL) | IC50 at 48 h [3, 7]: > 75 µg/mL | MIC [4, 8]: 21.7 µM | MIC [5]: 21.7 µM (≈ 8 µg/mL) | melting point: 191 °C

Clc1ccc(C2=NN(c3ccccc3)C(c3cccnc3)C2)cc1Cl (centres unmarked) [Compound 27, 3-(3,4-dichlorophenyl)-1-phenyl-5-(pyridin-3-yl)-4,5-dihydro-1H-pyrazole]
IC50 [1]: 211 ± 2 µM | MIC [2, 6]: 67.9 µM (≈ 25 µg/mL) | IC50 at 48 h [3, 7]: > 75 µg/mL | MIC [4, 8]: 21.7 µM | MIC [5]: 21.7 µM (≈ 8 µg/mL) | melting point: 184 °C

Clc1ccc(C2=NN(c3ccccc3)C(c3ccncc3)C2)cc1Cl (centres unmarked) [Compound 28, 3-(3,4-dichlorophenyl)-1-phenyl-5-(pyridin-4-yl)-4,5-dihydro-1H-pyrazole]
IC50 [1]: 173 ± 2 µM | MIC [2, 6]: 67.9 µM (≈ 25 µg/mL) | IC50 at 48 h [3, 7]: > 75 µg/mL | MIC [4, 8]: 21.7 µM | MIC [5]: 21.7 µM (≈ 8 µg/mL) | melting point: 214 °C
